Bridge positions count the residues as written; N and C are the ends. Square brackets hold non-standard residues; d marks the D form. Peptide text beside a SMILES is read from it. Mpa = O=C(O)CCS
Assays:
Vasopressin V1b receptor = molecular target: T1, Vasopressin V1b receptor (Homo sapiens, UniProt P47901); assay: Agonist activity at human V1b receptor expressed in CHO cells assessed as calcium mobilization measured after 30 mins by Fluo-4-AM dye based FLIPR assay; type: cell-based
T1 sequence (P47901 whole entry): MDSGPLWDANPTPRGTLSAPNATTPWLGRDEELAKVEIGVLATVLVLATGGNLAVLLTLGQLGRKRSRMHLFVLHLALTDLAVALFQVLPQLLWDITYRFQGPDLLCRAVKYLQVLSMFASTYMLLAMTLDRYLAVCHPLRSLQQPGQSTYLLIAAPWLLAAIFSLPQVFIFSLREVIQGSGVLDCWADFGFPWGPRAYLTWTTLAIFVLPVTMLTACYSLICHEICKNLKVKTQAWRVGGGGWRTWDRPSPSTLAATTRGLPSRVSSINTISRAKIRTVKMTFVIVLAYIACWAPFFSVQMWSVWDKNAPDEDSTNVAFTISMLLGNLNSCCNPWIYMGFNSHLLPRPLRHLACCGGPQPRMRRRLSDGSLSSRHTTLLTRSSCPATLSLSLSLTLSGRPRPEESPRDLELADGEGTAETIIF

Homo sapiens [1] = organism: Homo sapiens; assay: Selectivity ratio of EC50 for human V1a receptor to EC50 for human OTR
Oxytocin receptor = molecular target: T2, Oxytocin receptor (Homo sapiens, UniProt P30559); assay: Agonist activity at human OTR expressed in CHO cells assessed as calcium mobilization measured after 30 mins by Fluo-4-AM dye based FLIPR assay; type: functional, cell-based
T2 sequence (P30559 whole entry): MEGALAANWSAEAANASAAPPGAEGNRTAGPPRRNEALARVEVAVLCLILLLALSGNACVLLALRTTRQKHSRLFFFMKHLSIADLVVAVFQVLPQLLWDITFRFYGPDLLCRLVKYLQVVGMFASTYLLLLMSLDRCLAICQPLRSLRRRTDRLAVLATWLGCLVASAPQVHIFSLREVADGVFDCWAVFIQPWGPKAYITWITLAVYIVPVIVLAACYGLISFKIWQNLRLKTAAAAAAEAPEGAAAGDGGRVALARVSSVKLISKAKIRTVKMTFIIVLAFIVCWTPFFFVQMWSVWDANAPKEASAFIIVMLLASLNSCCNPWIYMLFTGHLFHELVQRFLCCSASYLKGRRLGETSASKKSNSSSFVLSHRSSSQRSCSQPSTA

Vasopressin V1a receptor = Vasopressin V1a receptor (Homo sapiens, UniProt P37288); assay: Agonist activity at human V1a receptor expressed in CHO cells assessed as calcium mobilization measured after 30 mins by Fluo-4-AM dye based FLIPR assay; type: cell-based
Homo sapiens [2] = organism: Homo sapiens; assay: Selectivity ratio of EC50 for human V1b receptor to EC50 for human OTR

Sequence of Vasopressin V1a receptor (P37288 whole entry): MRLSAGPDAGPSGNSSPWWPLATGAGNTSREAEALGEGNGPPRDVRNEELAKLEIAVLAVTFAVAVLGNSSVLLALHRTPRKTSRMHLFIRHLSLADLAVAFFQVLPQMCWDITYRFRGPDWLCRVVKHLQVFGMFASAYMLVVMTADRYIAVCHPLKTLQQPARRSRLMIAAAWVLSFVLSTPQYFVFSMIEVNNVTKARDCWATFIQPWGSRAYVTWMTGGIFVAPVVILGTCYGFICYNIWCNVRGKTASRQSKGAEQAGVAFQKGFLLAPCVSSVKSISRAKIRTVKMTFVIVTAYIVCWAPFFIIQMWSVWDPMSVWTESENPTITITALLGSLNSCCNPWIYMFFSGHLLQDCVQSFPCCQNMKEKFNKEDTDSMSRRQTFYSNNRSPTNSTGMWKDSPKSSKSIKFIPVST

SMILES | EC50 (Vasopressin V1b receptor) [nM] | Ratio EC50 (Homo sapiens [1]) | EC50 (Oxytocin receptor) [nM] | EC50 (Vasopressin V1a receptor) [nM] | Ratio EC50 (Homo sapiens [2])
CC[C@H](C)[C@@H]1NC(=O)[C@H](Cc2ccc(O)cc2)NC(=O)CCSSC[C@@H](C(=O)N2CCC[C@H]2C(=O)N[C@@H](CC(C)C)C(=O)NCC(N)=O)NC(=O)[C@H](CC(N)=O)NC(=O)[C@H](C)NC1=O ([Mpa]YIANCPLG-NH2; disulfide 1-6) | 69 | > 100 | 0.24 | > 100 | 290
CC[C@H](C)[C@@H]1NC(=O)[C@H](Cc2ccc(O)cc2)NC(=O)CCSSC[C@@H](C(=O)N2CCC[C@H]2C(=O)N[C@@H](CC(C)C)C(=O)NCC(N)=O)NC(=O)[C@H](CC(N)=O)NC(=O)[C@H](CCC(=O)O)NC1=O ([Mpa]YIENCPLG-NH2; disulfide 1-6) | > 100 | > 10 | 5.1 | > 100 | > 10
CC[C@H](C)[C@@H]1NC(=O)[C@H](Cc2ccc(O)cc2)NC(=O)CCSSC[C@@H](C(=O)N2CCC[C@H]2C(=O)N[C@@H](CC(C)C)C(=O)NCC(N)=O)NC(=O)[C@H](CC(N)=O)NC(=O)[C@H](Cc2ccccc2)NC1=O ([Mpa]YIFNCPLG-NH2; disulfide 1-6) | > 100 | > 4 | 22 | > 100 | > 4
CC[C@H](C)[C@@H]1NC(=O)[C@H](Cc2ccc(O)cc2)NC(=O)CCSSC[C@@H](C(=O)N2CCC[C@H]2C(=O)N[C@@H](CC(C)C)C(=O)NCC(N)=O)NC(=O)[C@H](CC(N)=O)NC(=O)[C@H](CC(C)C)NC1=O ([Mpa]YILNCPLG-NH2; disulfide 1-6) | 23 | > 100 | 0.78 | > 100 | 29
CC[C@H](C)[C@@H]1NC(=O)[C@H](Cc2ccc(O)cc2)NC(=O)CCSSC[C@@H](C(=O)N2CCC[C@H]2C(=O)N[C@@H](CC(C)C)C(=O)NCC(N)=O)NC(=O)[C@H](C)NC(=O)[C@H](CCC(N)=O)NC1=O ([Mpa]YIQACPLG-NH2; disulfide 1-6) | > 100 | > 5 | 17 | > 100 | > 5
CC[C@H](C)[C@@H]1NC(=O)[C@H](Cc2ccc(O)cc2)NC(=O)CCSSC[C@@H](C(=O)N2CCC[C@H]2C(=O)N[C@@H](CC(C)C)C(=O)NCC(N)=O)NC(=O)[C@H](CCC(=O)O)NC(=O)[C@H](CCC(N)=O)NC1=O ([Mpa]YIQECPLG-NH2; disulfide 1-6) | > 100 | > 1 | 89 | > 100 | > 1
CC[C@H](C)[C@@H]1NC(=O)[C@H](Cc2ccc(O)cc2)NC(=O)CCSSC[C@@H](C(=O)N[C@@H](C)C(=O)N[C@@H](CC(C)C)C(=O)NCC(N)=O)NC(=O)[C@H](CC(N)=O)NC(=O)[C@H](CCC(N)=O)NC1=O ([Mpa]YIQNCALG-NH2; disulfide 1-6) | > 100 | > 1000 | 0.07 | > 100 | > 1000
CC[C@H](C)[C@@H]1NC(=O)[C@H](Cc2ccc(O)cc2)NC(=O)CCSSC[C@@H](C(=O)N[C@@H](CCC(=O)O)C(=O)N[C@@H](CC(C)C)C(=O)NCC(N)=O)NC(=O)[C@H](CC(N)=O)NC(=O)[C@H](CCC(N)=O)NC1=O ([Mpa]YIQNCELG-NH2; disulfide 1-6) | > 100 | > 100 | 0.35 | > 100 | > 100
CC[C@H](C)[C@@H]1NC(=O)[C@H](Cc2ccc(O)cc2)NC(=O)CCSSC[C@@H](C(=O)N[C@@H](Cc2ccccc2)C(=O)N[C@@H](CC(C)C)C(=O)NCC(N)=O)NC(=O)[C@H](CC(N)=O)NC(=O)[C@H](CCC(N)=O)NC1=O ([Mpa]YIQNCFLG-NH2; disulfide 1-6) | > 100 | > 100 | 0.12 | > 100 | > 100
CC[C@H](C)[C@@H]1NC(=O)[C@H](Cc2ccc(O)cc2)NC(=O)CCSSC[C@@H](C(=O)NCC(=O)N[C@@H](CC(C)C)C(=O)NCC(N)=O)NC(=O)[C@H](CC(N)=O)NC(=O)[C@H](CCC(N)=O)NC1=O ([Mpa]YIQNCGLG-NH2; disulfide 1-6) | > 100 | > 1000 | 0.013 | > 100 | > 1000
CC[C@H](C)[C@@H]1NC(=O)[C@H](Cc2ccc(O)cc2)NC(=O)CCSSC[C@@H](C(=O)N[C@@H](CC(C)C)C(=O)N[C@@H](CC(C)C)C(=O)NCC(N)=O)NC(=O)[C@H](CC(N)=O)NC(=O)[C@H](CCC(N)=O)NC1=O ([Mpa]YIQNCLLG-NH2; disulfide 1-6) | > 100 | > 10 | 3.4 | > 100 | > 10
CC[C@H](C)[C@@H]1NC(=O)[C@H](Cc2ccc(O)cc2)NC(=O)CCSSC[C@@H](C(=O)N2CCC[C@H]2C(=O)N[C@@H](C)C(=O)NCC(N)=O)NC(=O)[C@H](CC(N)=O)NC(=O)[C@H](CCC(N)=O)NC1=O ([Mpa]YIQNCPAG-NH2; disulfide 1-6) | 0.17 | 200 | 0.021 | 4.2 | 8.1
CC[C@H](C)[C@@H]1NC(=O)[C@H](Cc2ccc(O)cc2)NC(=O)CCSSC[C@@H](C(=O)N2CCC[C@H]2C(=O)N[C@@H](CCC(=O)O)C(=O)NCC(N)=O)NC(=O)[C@H](CC(N)=O)NC(=O)[C@H](CCC(N)=O)NC1=O ([Mpa]YIQNCPEG-NH2; disulfide 1-6) | > 100 | > 100 | 0.25 | > 100 | > 100
CC[C@H](C)[C@@H]1NC(=O)[C@H](Cc2ccc(O)cc2)NC(=O)CCSSC[C@@H](C(=O)N2CCC[C@H]2C(=O)N[C@@H](Cc2ccccc2)C(=O)NCC(N)=O)NC(=O)[C@H](CC(N)=O)NC(=O)[C@H](CCC(N)=O)NC1=O ([Mpa]YIQNCPFG-NH2; disulfide 1-6) | 2.4 | > 1000 | 0.054 | > 100 | 44
CC[C@H](C)[C@@H]1NC(=O)[C@H](Cc2ccc(O)cc2)NC(=O)CCSSC[C@@H](C(=O)N2CCC[C@H]2C(=O)N[C@@H](CC(C)C)C(=O)N[C@@H](C)C(N)=O)NC(=O)[C@H](CC(N)=O)NC(=O)[C@H](CCC(N)=O)NC1=O ([Mpa]YIQNCPLA-NH2; disulfide 1-6) | > 100 | > 10 | 1.4 | > 100 | > 10
CC[C@H](C)[C@@H]1NC(=O)[C@H](Cc2ccc(O)cc2)NC(=O)CCSSC[C@@H](C(=O)N2CCC[C@H]2C(=O)N[C@@H](CC(C)C)C(=O)N[C@@H](CCC(=O)O)C(N)=O)NC(=O)[C@H](CC(N)=O)NC(=O)[C@H](CCC(N)=O)NC1=O ([Mpa]YIQNCPLE-NH2; disulfide 1-6) | > 100 | > 10 | 9.5 | > 100 | > 10
CC[C@H](C)[C@@H]1NC(=O)[C@H](Cc2ccc(O)cc2)NC(=O)CCSSC[C@@H](C(=O)N2CCC[C@H]2C(=O)N[C@@H](CC(C)C)C(=O)N[C@@H](Cc2ccccc2)C(N)=O)NC(=O)[C@H](CC(N)=O)NC(=O)[C@H](CCC(N)=O)NC1=O ([Mpa]YIQNCPLF-NH2; disulfide 1-6) | > 100 | > 10 | 1.6 | > 100 | > 10
CC[C@H](C)[C@@H]1NC(=O)[C@H](Cc2ccc(O)cc2)NC(=O)CCSSC[C@@H](C(=O)N2CCC[C@H]2C(=O)N[C@@H](CC(C)C)C(=O)N[C@@H](CC(C)C)C(N)=O)NC(=O)[C@H](CC(N)=O)NC(=O)[C@H](CCC(N)=O)NC1=O ([Mpa]YIQNCPLL-NH2; disulfide 1-6) | > 100 | > 10 | 1.6 | > 100 | > 10
CC[C@H](C)[C@@H]1NC(=O)[C@H](Cc2ccc(O)cc2)NC(=O)CCSSC[C@@H](C(=O)N2CCC[C@H]2C(=O)N[C@@H](CC(C)C)C(=O)N[C@@H](CCCNC(=N)N)C(N)=O)NC(=O)[C@H](CC(N)=O)NC(=O)[C@H](CCC(N)=O)NC1=O ([Mpa]YIQNCPLR-NH2; disulfide 1-6) | > 100 | > 100 | 0.53 | > 100 | > 100
CC[C@H](C)[C@@H]1NC(=O)[C@H](Cc2ccc(O)cc2)NC(=O)CCSSC[C@@H](C(=O)N2CCC[C@H]2C(=O)N[C@@H](CCCNC(=N)N)C(=O)NCC(N)=O)NC(=O)[C@H](CC(N)=O)NC(=O)[C@H](CCC(N)=O)NC1=O ([Mpa]YIQNCPRG-NH2; disulfide 1-6) | 0.034 | 4 | 0.03 | 0.12 | 1.1

— ChEMBL document CHEMBL4017483, “Potent and selective oxytocin receptor agonists without disulfide bridges” (Bioorg Med Chem Lett, 2017)
